Earlier results on 1 molecule are cited in US5827842A, “14α, 17α-C2 -bridged norprogesterone derivatives” (Schering Aktiengesellschaft, priority 1994, dated 1998).

This data set deals with endometrium.

The structures appear in SMILES notation.

As for `CC(=O)[C@]12CC[C@@]3(CC1)[C@@H]1CCC4=CC(=O)CC[C@@H]4[C@H]1CC[C@]23C` [14,17-Ethano-19-norpregn-4-ene-3,20-dione], where the note is “J. Med. Chem. 16, 270 (1973)”, the “factor between subcutaneous and peroral action” value is listed as “over 20”. Also, the “gestagenic action in the Clauberg Test after oral administration” value (oral administration) was “only a slight effect”. Where the note is “subcutaneous administration”, the “gestagenic action in the Clauberg Test after subcutaneous administration” value is on record as “good effect”.
